# Results reported in US20250243267A1, “COMBINATION OF A GREMLIN-1 ANTAGONIST WITH A CYTIDINE ANALOGUE OR DEOXYCYTIDINE ANALOGUE” (UCB BIOPHARMA SRL, priority 2022, published 2025).
# Where “and” joins values, the source holds several entries; their conditions need not be identical. Equal entries are not always repeated.
# Tested on: LSL-KrasG12D/+; LSL-Trp53R172H/+; Pdx1-Cre (KPC) mouse model of pancreatic cancer
# Test: Survival of KPC mice with pancreatic cancer from start of treatment (Kaplan-Meier, Log-Rank)
# Type: in vivo
# Source text: • Test antibody and drug Anti-gremlin-1 antibody-Ab7326 mlgG1-APP.4405.IgG.mFc-Lot number-PB 4682 • Vehicle-Phosphate Buffered Saline pH 7.4 (provided by the Beatson Institute) • Gemcitabine-(provided by the Beatson Institute, purchased from LC Labs, Woburn, MA, USA) in Phosphate Buffered Saline pH 7.4. • Genetically Modified Mice • LSL-Kras^G12D/+; Trp53^R172H/+; Pdx1-Cre (KPC) mice have been described previously (Hingorani et al., 2005). Mice were generated by crossing mice bearing Pdx1-Cre, and conditional LSL-KrasG12D or LSL-Trp53R172H alleles (strains 01XJ6 and 01XL9, Mouse Models of Human Cancer Consortium [MMHCC], NCI-Frederick, Frederick, MD, USA). Mice on a mixed background were bred in-house at the CRUK Beatson Institute and maintained in conventional caging with environmental enrichment, access to standard chow and water ad libitum. Genotyping was performed by Transnetyx (Cordoba, TN, USA). Mice of both sexes were recruited onto study. All animal experiments were performed under a UK Home Office licence and approved by the University of Glasgow Animal Welfare and Ethical Review Board.
# Mice were monitored 3 times weekly until a diagnosis of pancreatic cancer was made by abdominal palpation and confirmed by ultrasound imaging. […] Mice were monitored daily and sacrificed when reaching ethical endpoint (symptoms include abdominal distension, cachexia, intermittent hunching or reduced mobility, piloerection, mild diarrhoea, anaemia). […]
# Next, the efficacy of gremlin-1 inhibition as a potential therapeutic approach for pancreatic cancer was tested in the KPC model. […] A cohort of KPC mice was established and mice were monitored until they developed pancreatic cancer detectable by palpation.
# Mice were monitored at least weekly by palpation until pancreatic tumours were detectable. […] Mice remained on study and were closely monitored until ethical endpoint was reached, at which time they were sacrificed as per institutional guidelines.
structure (smiles),measurement,setting,value
"Nc1ccn([C@@H]2O[C@H](CO)[C@@H](O)C2(F)F)c(=O)n1 [Gemcitabine, 2′-deoxy-2′,2′-difluorocytidine, reference compound]",survival compared with vehicle controls,"KPC mice, result in words",negligible benefit
same,Median (days) survival,"KPC mice, survival from start of treatment, dosing twice weekly (Ab7326 mlgG1 30 mg/kg s.c.; gemcitabine 100 mg/kg i.p.)",24 days
same,Days on Rx (individual mice),"one value per KPC mouse, * denotes smaller than average tumour at start of treatment",3 days and 34 days and 24 days and 44 days and 17 days
